Source: PMC12610274, “Identification of Marrubiin as a Cathepsin C Inhibitor for Treating Rheumatoid Arthritis” (Molecules, 2025)

Columns and labels:
[1] = tested on: AIA model; assay: Adjuvant-induced arthritis (AIA) model, disease severity; type: in vivo, Sprague-Dawley rats; details: rat AIA
Protocol: Thirty 4-week-old male Sprague-Dawley rats (weighing 120–130 g) were randomly divided into 6 groups (5 rats per group) after 1 week of adaptive feeding, namely the normal group, model group, low-dose experimental group (15 mg/kg), medium-dose experimental group (30 mg/kg), high-dose experimental group (60 mg/kg), and positive control group (30 mg/kg). Starting from Day 0 of the experiment, rats in the administration groups and model group were injected intradermally with 0.1 mL of CFA into the left hind paw to induce AIA, while rats in the normal group were injected intradermally with an equal volume (0.1 mL) of normal saline as a control. After 13 consecutive days of feeding, rats treated with CFA successfully developed typical AIA symptoms. […] During the experiment, the body weight, mental state, activity ability, hair color changes, and paw appearance changes of the rats were observed and recorded daily. In addition, on Day 0 of the experiment (baseline period), the basic paw volume of all rats was accurately measured using a plethysmometer, which served as a reference standard for subsequent evaluation of inflammation severity. From Day 13 to Day 28 of the experiment, the paw volume of the rats was measured repeatedly every 3 days. The degree of paw swelling was quantified by calculating the change in paw volume relative to the baseline. Meanwhile, the arthritis index score was calculated based on the range of paw redness and swelling, the severity of swelling, and the degree of limb movement limitation, so as to comprehensively evaluate the inflammatory state. On Day 28 of the experiment (the end of the administration cycle), blood samples were collected via abdominal aortic puncture. The blood samples were centrifuged at 3000 rpm for 20 min, and the upper serum was collected and stored at −20 °C for subsequent detection. The rats were then sacrificed, and their ankle joint tissues were harvested for subsequent pathological section observation and analysis. The cytokine levels in serum were measured. The activity detection of CTSC and NSPs was carried out according to the above methods.

[2] = tested on: NE; assay: Stability (protein level) of NSPs in U937 cells, Western blot, NE; type: cell-based, human; details: U937, 10 μM
Protocol: The Western blot experiments in this study were performed as described below. Cells in the logarithmic growth phase were collected in appropriate numbers according to different experimental purposes. After being thoroughly washed with phosphate-buffered saline and centrifuged, the cell pellets were resuspended in phosphate-buffered saline to obtain single-cell suspensions. Cells were fully lysed using RIPA buffer (Beyotime, P0013B) supplemented with EDTA-free protease and phosphatase inhibitor (Abcam, ab201120). Total cellular protein solutions were obtained after centrifugation to remove cell debris. The isolated proteins were quantified using the BeyoBCA protein assay kit (Beyotime, P0399M) following the operational protocol. The quantified protein samples were thoroughly mixed with protein loading buffer, boiled on a dry bath for 5 min, and then cooled to room temperature for Western blot analysis. […] Finally, enhanced chemiluminescent horseradish peroxidase substrate (Tanon Science & Technology Co., Ltd., Shanghai, China, 180-506) was used to visualize protein bands on a ChemiDoc XRS system (Bio-Rad Laboratories, Inc., Hercules, CA, USA), and the protein bands were quantified using Image Lab analysis software (Version 6.1) (Bio-Rad). […]

[3] = molecular target: T1, NE (Homo sapiens, UniProt P08246); assay: Recombinant NSPs isolated enzyme assay, NE; type: biochemical; details: read-out: NE Enz (IC50: μM)
T1 construct: purchased MedChemExpress
T1 sequence (P08246 30-267): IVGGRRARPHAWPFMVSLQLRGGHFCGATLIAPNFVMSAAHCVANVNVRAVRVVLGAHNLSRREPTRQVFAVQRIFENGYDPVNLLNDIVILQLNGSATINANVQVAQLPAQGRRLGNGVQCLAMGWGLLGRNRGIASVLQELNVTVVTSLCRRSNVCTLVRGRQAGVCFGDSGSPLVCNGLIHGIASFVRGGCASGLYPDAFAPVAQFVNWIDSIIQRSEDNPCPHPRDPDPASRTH
Text: (§1) The protocol for evaluating the inhibitory potency of compounds against other cathepsins referred to the CTSC activity assay. Recombinant human CTSB, CTSL, CTSS and CTSK for testing were also purchased from R&D Systems Biotechnology Company. Recombinant human Cat G, NE, and PR3 For testing were purchased from MedChemExpress. A multi-functional microplate reader was used to measure the absorption of Z-Leu-Arg-AMC at excitation/emission wavelengths of 380/460 nm to assess the activity changes of CTSB and CTSL, while the absorption of MCA-Arg-Pro-Lys-Pro-Val-Glu-NVAL-Trp-Arg-Lys(DNP)-NH2 at 320/405 nm was measured to evaluate the activity changes of CTSS and CTSK. Different assay buffers were prepared for diluting samples and measuring the activities of specific NSPs: a buffer containing 50 mM Tris and 750 mM NaCl (pH 7.4) was used for NE and PR3; a buffer containing 50 mM Tris, 750 mM NaCl, 5 mM EDTA (pH 7.4) was used for Cat G; and a buffer containing 25 mM MES, 50 mM NaCl, 5 mM DTT (pH 6.0) was used for CTSC. Synthetic substrates were employed to assess the activities of NSPs and CTSC: H-Gly-Arg-AMC for CTSC, N-MeSuc-Ala-Ala-Pro-Val-pNA for NE, aminobenzoyl-Val-Ala-Asp-Cys-Ala-Asp-Gln-ethylenediamine 2,4-dinitrophenyl for PR3, and N-Suc-Ala-Ala-Pro-Phe-pNA for Cat G. Each group of tests was independently repeated at least 3 times, and IC50 values were calculated using SPSS 10.0.

[4] = molecular target: T2, CTSL (Homo sapiens, UniProt P07711); assay: Human recombinant cathepsins isolated enzyme assay, CTSL; type: biochemical; details: read-out: CTSL Enz (IC50: μM)
T2 construct: purchased R&D Systems
T2 sequence (P07711 114-333): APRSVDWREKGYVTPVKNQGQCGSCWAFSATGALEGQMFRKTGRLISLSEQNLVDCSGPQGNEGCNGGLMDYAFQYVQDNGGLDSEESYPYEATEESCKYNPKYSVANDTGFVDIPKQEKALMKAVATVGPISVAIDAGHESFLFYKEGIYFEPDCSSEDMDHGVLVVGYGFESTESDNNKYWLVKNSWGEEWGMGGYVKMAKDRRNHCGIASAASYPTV
Text: as §1

C[C@@H]1C[C@H]2OC(=O)[C@@]3(C)CCC[C@@](C)([C@@H]23)[C@@]1(O)CCc1ccoc1 [Marrubiin, marrubiin]
clinical score vs AIA model group ([1]; 60 mg/kg gavage, from day 16 onwards): significantly lower than those of AIA model group | body weight recovery ([1]; 60 mg/kg, from day 16 onwards): most significant weight recovery effects | histopathology of ankle joints (H&E, Safranin O/Fast Green) ([1]; different doses (15, 30, 60 mg/kg)): reduced the histopathological statement | volume and thickness of inflamed paws ([1]; different doses (15, 30, 60 mg/kg), days 16 to 28): continuous reduction in volume and a gradual decrease in thickness | NE protein level, % of original level ([2]; 96 h): 15.7% | NE protein level, % of original level ([2]; 5 days): 8.7% | IC50 [3]: > 10 µM | IC50 [4]: 4.4 ± 0.5 µM
